In US20210371351A1, “MIXTURES COMPRISING AT LEAST TWO DIFFERENT NITRIFICATION INHIBITORS SELECTED FROM 2-(3,4-DIMETHYL-1H-PYRAZOL-1-YL)SUCCINIC ACID (DMPSA), 3,4-DIMETHYL PYRAZOLIUM GLYCOLATE (DMPG) AND OTHER COMPOUNDS” (BASF SE, priority 2017, published 2021):

Columns and labels:
nitrification [1] = assay: Example 3: soil column trial (soil Limburgerhof) with ammonium sulfate, DMPP, DMPSA or DMPP+DMPSA; leaching at 5° C., incubation 10 d or 20 d at 15° C.; NH4-N/NO3-N, % inhibition of NO3-N formation (Böhland), Colby; conditions: 0.05% DMPP, 0.45% DMPSA
Excerpt: The effect on NH4^+ retention and NH4^+ to NO3^− ratios in the soil after fertilization of ammonium sulfate with the addition of DMPP, DMPSA or a combination of DMPP and DMPSA was investigated in column trials simulating climatic conditions of spring time in central Europe. Soil Limburgerhof (pH(CaCl2) 6.8, texture: 73% sand; 24% silt, 3% clay) was filled dry into a glass column with an inner width of 4 cm. At the bottom 0.4 g cotton wool was placed above which a frit (Co. Robu, pore size 1) was placed above which 100 g of 2 mm sieved soil Limburgerhof was layered. The soil height in the column was about 7 cm. Before fertilization the soil was brought to about 60% of its water holding capacity (WHC) be adding 14.4 mL of deionized water. Per column 10 mg NH4—N as ammonium sulfate was fertilized or not (control) together or not with 0.05% DMPP (DMPP obtained from BASF SE), 0.45% DMPSA (DMPSA used as free acid obtained from BASF SE) and 0.05% DMPP plus 0.45% DMPSA (% of nitrification inhibitor w/w of NH4—N). Every treatment was replicated three times.
After fertilization, 50 mL demineralized water was carefully and slowly placed on top of each column which equals about 31 mm precipitation. After 24 h the eluate was collected and by sucking off the soil to bring it back to about 60% of its WHC. All handlings including soil preparation, fertilization and the temperature of the water for both wetting the soil and the artificial precipitation up to the collection of the eluate 24 h after fertilization was performed at 5° C.
Thereafter, the columns were incubated for 10 d or 20 d at constantly 15° C. in an incubator. After 7 d and 14 d, water was added by weight where needed to bring the soils uniformly to 60% WHC. After 10 d or 20 d, the soil was removed from the columns and extracted with 1% (w/w) K2SO4 solution by shaking for 2 h at room temperature. The filtrated extract was then analyzed for NH4^+ and NO3 colorimetrical by an autoanalyzer.
To calculate the inhibition of nitrate formation by the nitrification inhibitors during the incubation, the above-mentioned Böhland equation was used. To examine synergistic effects of the combination of DMPP+DMPSA the formula by Colby (Colby, S.R., “Calculating synergistic and antagonistic responses of herbicide Combinations”, Weeds, 15, pp. 20-22, 1967) was used. To determine background levels of NH4+ to NO3−, every treatment was also extracted immediately after fertilization and after leaching prior to the further incubation at 15° C. for 10 d or 20 d.

nitrification [2] = assay: Example 5: soil incubation in bottles with ammonium sulfate, DMPSA, DCD or mixtures, 5 to 15° C., 0 up to 56 days; recovery NH4 (RE/RC), net recovery NH4 (NE/NC), inhibition of NO3 formation (IE/IC, Böhland; Colby); parameters: unit not given here
Procedure: 100 g soil is filled into 500 ml plastic bottles (e.g. soil sampled from the field) and is moistened to 50% water holding capacity. The soil is incubated at 20° C. for two weeks to activate the microbial biomass. 1 ml test solution, containing the compositions and mixtures of the invention in the appropriate concentration, or DMSO and 5 to 10 mg nitrogen in the form of ammoniumsulfate-N is added to the soil and everything mixed well. Bottles are capped but loosely to allow air exchange. The bottles are then incubated at 5 to 15° C. for 0 up to 56 days.
For analysis, 300 ml of a 1% K2SO4-solution is added to the bottle containing the soil and shaken for 2 hrs in a horizontal shaker at 150 rpm. Then the whole solution is filtered through a Macherey-Nagel Filter MN 807′/. Ammonium and nitrate content is then analyzed in the filtrate in an autoanalyzer at 550 nm (Merck, AA11).
The Böhland equation is described in Böhland, H., et al. (1973) “Mittel zur Hemmung bzw. Regelung der Nitrifikation von Ammoniumstickstoff in Kulturböden”. DDR-Wirtschaftspatent (Economic patent of the German Democratic Republic) C 05c 169 727. Cited by: Peschke, H. (1985) “Zur Bewertung der inhibierenden Wirkung von Nitrifiziden im Boden”, Zbl. Mikrobiol. 140, pp. 583-588.

[3] = 10 days of incubation at 15° C.
[4] = 20 days of incubation at 15° C.

## 2-(3,4-dimethyl-1H-pyrazol-1-yl)succinic acid and/or 2-(4,5-dimethyl-1H-pyrazol-1-yl)succinic acid [DMPSA]
Nitrification [1]; [3]
  During incubation: % inhibition of NO3—N formation by NI acc. to Böhland equation (1973) (MV): 14.2%
  Net NI effect % NH4 from fertilized NH4 (MV): 6.88%
  Ratio NH4—N/NO3—N (MV): 0.53
  Soil mg/100 g NH4—N (MV): 3.16 mg/100 g
  Soil mg/100 g NO3—N (MV): 6.30 mg/100 g
Nitrification [1]; [4]
  During incubation: % inhibition of NO3—N formation by NI acc. to Böhland equation (1973) (MV): 4.8%
  Net NI effect % NH4 from fertilized NH4 (MV): 1.79%
  Ratio NH4—N/NO3—N (MV): 0.02
  Soil mg/100 g NH4—N (MV): 0.19 mg/100 g
  Soil mg/100 g NO3—N (MV): 9.60 mg/100 g
Nitrification [2]; IT5° C., DAT10, % a.i.: DMPSA 0.5, DCD 1, DMPSA + DCD 0.5 + 1 (1:2)
  IE inhibition of NO3 formation: 18
Nitrification [2]; IT5° C., DAT10, % a.i.: DMPSA 0.5, DCD 3, DMPSA + DCD 0.5 + 3 (1:6)
  IE inhibition of NO3 formation: 18
Nitrification [2]; IT5° C., DAT20, % a.i.: DMPSA 0.5, DCD 1, DMPSA + DCD 0.5 + 1 (1:2)
  IE inhibition of NO3 formation: 20
Nitrification [2]; IT5° C., DAT20, % a.i.: DMPSA 0.5, DCD 3, DMPSA + DCD 0.5 + 3 (1:6)
  IE inhibition of NO3 formation: 20
Nitrification [2]; IT5° C., DAT28, % a.i. DMPSA 0.25, DCD 1
  IE (inhibition of NO3 formation, Böhland): 77
Nitrification [2]; IT5° C., DAT28, % a.i. DMPSA 0.25, DCD 3
  IE (inhibition of NO3 formation, Böhland): 77
Nitrification [2]; IT5° C., DAT28, % a.i. DMPSA 0.30, DCD 0.05
  IE (inhibition of NO3 formation, Böhland): 42
Nitrification [2]; IT5° C., DAT28, % a.i. DMPSA 0.50, DCD 0.08
  IE (inhibition of NO3 formation, Böhland): 41
Nitrification [2]; IT5° C., DAT28, % a.i.: DMPSA 0.50, DCD 0.0125, DMPSA + DCD 0.50 + 0.0125 (40:1)
  IE inhibition of NO3 formation: 44
Nitrification [2]; IT5° C., DAT28, % a.i.: DMPSA 0.50, DCD 0.0143, DMPSA + DCD 0.50 + 0.0143 (35:1)
  IE inhibition of NO3 formation: 44
Nitrification [2]; IT5° C., DAT28, % a.i.: DMPSA 0.50, DCD 0.0167, DMPSA + DCD 0.50 + 0.0167 (30:1)
  IE inhibition of NO3 formation: 44
Nitrification [2]; IT5° C., DAT30, % a.i.: DMPSA 0.5, DCD 1, DMPSA + DCD 0.5 + 1 (1:2)
  IE inhibition of NO3 formation: 66
Nitrification [2]; IT5° C., DAT30, % a.i.: DMPSA 0.5, DCD 3, DMPSA + DCD 0.5 + 3 (1:6)
  IE inhibition of NO3 formation: 66
Nitrification [2]; IT5° C., DAT42, % a.i. DMPSA 0.25, DCD 1
  IE (inhibition of NO3 formation, Böhland): 75
Nitrification [2]; IT5° C., DAT42, % a.i. DMPSA 0.25, DCD 3
  IE (inhibition of NO3 formation, Böhland): 75
Nitrification [2]; IT5° C., DAT42, % a.i. DMPSA 0.30, DCD 0.05
  IE (inhibition of NO3 formation, Böhland): 55
Nitrification [2]; IT5° C., DAT42, % a.i. DMPSA 0.50, DCD 0.08
  IE (inhibition of NO3 formation, Böhland): 53
Nitrification [2]; IT5° C., DAT56, % a.i. DMPSA 0.25, DCD 1
  IE (inhibition of NO3 formation, Böhland): 83
Nitrification [2]; IT5° C., DAT56, % a.i. DMPSA 0.25, DCD 3
  IE (inhibition of NO3 formation, Böhland): 83
Nitrification [2]; IT5° C., DAT56, % a.i. DMPSA 0.30, DCD 0.05
  IE (inhibition of NO3 formation, Böhland): 63
Nitrification [2]; IT10° C., DAT10, % a.i.: DMPSA 0.5, DCD 1, DMPSA + DCD 0.5 + 1 (1:2)
  IE inhibition of NO3 formation: 70
Nitrification [2]; IT10° C., DAT10, % a.i.: DMPSA 0.5, DCD 3, DMPSA + DCD 0.5 + 3 (1:6)
  IE inhibition of NO3 formation: 70
Nitrification [2]; IT10° C., DAT20, % a.i.: DMPSA 0.5, DCD 1, DMPSA + DCD 0.5 + 1 (1:2)
  IE inhibition of NO3 formation: 7
Nitrification [2]; IT10° C., DAT20, % a.i.: DMPSA 0.5, DCD 3, DMPSA + DCD 0.5 + 3 (1:6)
  IE inhibition of NO3 formation: 7
Nitrification [2]; IT10° C., DAT28, % a.i. DMPSA 0.25, DCD 1
  IE (inhibition of NO3 formation, Böhland): 59
Nitrification [2]; IT10° C., DAT28, % a.i. DMPSA 0.25, DCD 3
  IE (inhibition of NO3 formation, Böhland): 59
